Measurements taken from patent publication US20230053864A1, “Methods for Identifying Modulators of G Protein-Coupled Receptors” (University of Miami, priority 2019, published 2023).
Values joined by “and” are separate entries in the source; they are usually repeats but may differ in a detail not shown here. Equal entries are not always repeated. “Also recorded” adds a separate entry of the source.

Assays:
HCAR3 = HCAR3 (Homo sapiens, UniProt P49019); assay: dCyFIRscreen profiling and titrations in yeast GPCR-Gα reporter strains; assay type: cell-based; set-up: expressed in transfected cells; settings: for EC50: titration, yeast GPCR-Gα reporter strain, this study
Sequence of HCAR3 (P49019 whole entry): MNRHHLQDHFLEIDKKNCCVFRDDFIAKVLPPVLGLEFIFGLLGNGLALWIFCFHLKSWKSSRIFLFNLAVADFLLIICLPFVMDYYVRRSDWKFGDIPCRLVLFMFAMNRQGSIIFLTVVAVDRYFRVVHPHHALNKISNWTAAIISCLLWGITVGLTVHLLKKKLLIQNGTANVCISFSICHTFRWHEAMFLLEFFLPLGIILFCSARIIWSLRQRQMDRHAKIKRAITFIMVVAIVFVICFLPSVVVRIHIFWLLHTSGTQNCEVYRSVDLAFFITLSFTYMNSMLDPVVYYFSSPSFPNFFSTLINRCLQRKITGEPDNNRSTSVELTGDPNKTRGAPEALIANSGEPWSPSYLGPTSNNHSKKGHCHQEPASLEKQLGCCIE
Procedure: (§1) Individual Gα reporter strains were grown in SCD LoFo pH=7.0 at 30° C. to an OD=1.0 in a 2.0 mL 96-well DeepWell block (Greiner; 780271-FD). Cells were normalized to an OD of 0.1 in SCD LoFo pH=7.0 using a Biomek NXp liquid-handling robot. 10× ligand/vehicle stocks were prepared (see Table 2) and 4 μL were distributed to each well of a 384-well plate (Greiner; 781096) in quadruplicate using a Biomek NXp. 36 μL normalized cells were distributed to each well containing the appropriate 10× ligand/vehicle. Plates were sealed with a breathable cover (Diversified Biotech; BERM-2000) and incubated at 30° C. Fluorescence readings were collected after 18 hours using a plate reader (ClarioStar, BMG LabTech, Offenburg, Germany) (bottom read, 10 flashes/well, excitation filter: 430-10 nm, dichroic filter: LP 458 nm, emission filter: 482-16 nm, gain=1300 (1500 for FIG. 1B.)). Absorbance readings were also collected after 18 hours using the same instrument (22 flashes/well, excitation filter: 600 nm).
(§2) All titration curves were analyzed using Prism software and the pharmacological fitting function log(agonist) vs. response—Variable slope (four parameters) (GraphPad Software, San Diego, USA).

GPR35 = target: T1, GPR35 (Homo sapiens, UniProt Q9HC97); assay: as above; assay type: cell-based
T1 construct: expressed in transfected cells; host or cells: Saccharomyces cerevisiae BY4741-derived GPCR-Gα reporter strains, X-2 landing pad
T1 sequence (Q9HC97 whole entry): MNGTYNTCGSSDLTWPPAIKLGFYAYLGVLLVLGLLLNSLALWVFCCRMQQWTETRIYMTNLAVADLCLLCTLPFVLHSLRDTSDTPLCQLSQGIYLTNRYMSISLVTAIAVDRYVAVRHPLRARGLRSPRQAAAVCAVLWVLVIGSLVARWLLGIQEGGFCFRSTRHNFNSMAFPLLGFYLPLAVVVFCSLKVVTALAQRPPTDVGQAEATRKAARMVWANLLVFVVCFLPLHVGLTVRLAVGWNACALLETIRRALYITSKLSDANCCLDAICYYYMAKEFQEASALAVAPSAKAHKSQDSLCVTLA
Procedure: as §1, §2

LPAR1 = target: T2, LPAR1 (Homo sapiens, UniProt Q92633); assay: as above; assay type: cell-based
T2 construct: expressed in transfected cells; host or cells: Saccharomyces cerevisiae BY4741-derived GPCR-Gα reporter strains, X-2 landing pad
T2 sequence (Q92633 whole entry): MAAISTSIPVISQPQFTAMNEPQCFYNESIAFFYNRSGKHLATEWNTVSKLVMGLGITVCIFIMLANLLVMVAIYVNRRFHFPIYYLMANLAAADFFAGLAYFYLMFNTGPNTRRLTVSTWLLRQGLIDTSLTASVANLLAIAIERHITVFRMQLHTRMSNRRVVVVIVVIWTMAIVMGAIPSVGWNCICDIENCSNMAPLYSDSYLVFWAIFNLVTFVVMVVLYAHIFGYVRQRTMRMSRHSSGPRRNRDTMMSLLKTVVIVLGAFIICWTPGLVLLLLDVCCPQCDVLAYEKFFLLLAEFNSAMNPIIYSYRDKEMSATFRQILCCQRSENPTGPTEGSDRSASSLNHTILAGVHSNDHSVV
Procedure: as §1, §2

GPR68 = target: T3, GPR68 (Homo sapiens, UniProt Q15743); assay: as above; assay type: cell-based
T3 construct: expressed in transfected cells; host or cells: Saccharomyces cerevisiae BY4741-derived GPCR-Gα reporter strains, X-2 landing pad
T3 sequence (Q15743 whole entry): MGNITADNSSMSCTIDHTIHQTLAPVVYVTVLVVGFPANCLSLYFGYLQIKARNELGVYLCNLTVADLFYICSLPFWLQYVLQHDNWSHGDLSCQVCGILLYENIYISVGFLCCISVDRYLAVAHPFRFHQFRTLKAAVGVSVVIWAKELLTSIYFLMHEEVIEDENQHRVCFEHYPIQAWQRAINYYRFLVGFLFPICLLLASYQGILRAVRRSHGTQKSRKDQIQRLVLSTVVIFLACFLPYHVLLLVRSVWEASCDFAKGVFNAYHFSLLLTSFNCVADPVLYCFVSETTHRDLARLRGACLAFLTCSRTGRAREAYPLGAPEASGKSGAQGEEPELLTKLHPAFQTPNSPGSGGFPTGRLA
Procedure: as §1, §2

ADORA2A = target: T4, ADORA2A (Homo sapiens, UniProt P29274); assay: as above; assay type: cell-based
T4 construct: expressed in transfected cells; host or cells: Saccharomyces cerevisiae BY4741-derived GPCR-Gα reporter strains, X-2 landing pad
T4 sequence (P29274 whole entry): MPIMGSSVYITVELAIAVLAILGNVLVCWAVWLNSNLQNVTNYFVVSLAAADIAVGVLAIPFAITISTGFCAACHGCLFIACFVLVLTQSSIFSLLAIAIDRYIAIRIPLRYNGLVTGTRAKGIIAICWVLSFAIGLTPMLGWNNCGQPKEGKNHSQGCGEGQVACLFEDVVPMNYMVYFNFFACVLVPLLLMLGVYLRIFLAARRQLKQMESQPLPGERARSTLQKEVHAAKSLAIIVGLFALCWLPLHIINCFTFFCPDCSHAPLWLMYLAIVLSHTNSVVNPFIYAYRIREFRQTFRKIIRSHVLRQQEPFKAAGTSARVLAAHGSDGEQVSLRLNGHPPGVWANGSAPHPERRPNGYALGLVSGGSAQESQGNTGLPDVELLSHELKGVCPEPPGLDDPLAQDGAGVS
Procedure: as §1, §2

GPR4 = target: T5, GPR4 (Homo sapiens, UniProt P46093); assay: dCyFIRscreen profiling in yeast GPCR-Gα reporter strains; assay type: cell-based
T5 construct: expressed in transfected cells; host or cells: Saccharomyces cerevisiae BY4741-derived GPCR-Gα reporter strains, X-2 landing pad
T5 sequence (P46093 whole entry): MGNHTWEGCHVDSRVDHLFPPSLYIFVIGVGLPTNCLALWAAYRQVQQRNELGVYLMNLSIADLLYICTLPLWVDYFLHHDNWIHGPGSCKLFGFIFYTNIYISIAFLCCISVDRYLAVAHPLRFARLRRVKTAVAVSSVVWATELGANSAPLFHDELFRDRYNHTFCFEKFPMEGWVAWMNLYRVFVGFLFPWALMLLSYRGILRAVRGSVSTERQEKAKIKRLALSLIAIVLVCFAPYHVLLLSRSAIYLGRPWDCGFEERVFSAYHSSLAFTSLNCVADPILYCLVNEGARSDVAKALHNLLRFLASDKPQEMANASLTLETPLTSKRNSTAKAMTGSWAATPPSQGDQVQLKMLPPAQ
Procedure: as §1

HCAR2 = target: T6, HCAR2 (Homo sapiens, UniProt Q8TDS4); assay: as above; assay type: cell-based
T6 construct: expressed in transfected cells; host or cells: Saccharomyces cerevisiae BY4741-derived GPCR-Gα reporter strains, X-2 landing pad
T6 sequence (Q8TDS4 whole entry): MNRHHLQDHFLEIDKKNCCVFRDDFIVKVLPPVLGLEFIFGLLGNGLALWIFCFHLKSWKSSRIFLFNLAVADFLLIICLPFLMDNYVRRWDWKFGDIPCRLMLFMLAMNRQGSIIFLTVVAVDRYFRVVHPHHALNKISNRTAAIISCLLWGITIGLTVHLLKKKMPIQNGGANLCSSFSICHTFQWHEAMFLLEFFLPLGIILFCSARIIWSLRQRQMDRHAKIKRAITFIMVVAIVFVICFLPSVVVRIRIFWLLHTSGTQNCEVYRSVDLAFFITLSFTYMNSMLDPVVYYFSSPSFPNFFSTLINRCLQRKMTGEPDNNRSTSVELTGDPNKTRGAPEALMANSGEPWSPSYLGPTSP
Procedure: as §1

LPAR4 = target: T7, LPAR4 (Homo sapiens, UniProt Q99677); assay: as above; assay type: cell-based
T7 construct: expressed in transfected cells; host or cells: Saccharomyces cerevisiae BY4741-derived GPCR-Gα reporter strains, X-2 landing pad
T7 sequence (Q99677 whole entry): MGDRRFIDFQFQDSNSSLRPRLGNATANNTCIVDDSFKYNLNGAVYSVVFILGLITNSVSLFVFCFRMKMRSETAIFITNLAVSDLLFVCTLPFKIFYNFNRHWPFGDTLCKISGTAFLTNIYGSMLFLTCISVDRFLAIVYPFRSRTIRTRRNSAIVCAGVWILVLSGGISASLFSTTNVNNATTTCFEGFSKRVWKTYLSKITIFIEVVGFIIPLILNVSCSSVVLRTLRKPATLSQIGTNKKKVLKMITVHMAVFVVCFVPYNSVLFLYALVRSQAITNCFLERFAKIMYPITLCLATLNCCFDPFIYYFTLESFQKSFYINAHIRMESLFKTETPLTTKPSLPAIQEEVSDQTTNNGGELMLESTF
Procedure: as §1

[1] = test system: 20 GPCRs (200 GPCR-Gα strains); assay: control dCyFIRscreen profiles against 20 GPCRs (200 GPCR-Gα strains); assay type: cell-based, human; settings: 20 GPCRs incl. all 15 constitutively active receptors
Procedure: (§3) dCyFIRscreen protocol. Individual Gα reporter strains were grown in SCD LoFo pH=7.0 at 30° C. to an OD=1.0 in a 2.0 mL 96-well DeepWell block (Greiner; 780271-FD). Cells were normalized to an OD of 0.1 in SCD LoFo pH=7.0 using a Biomek NXp liquid-handling robot. 10× ligand/vehicle stocks were prepared (see Table 2) and 4 μL were distributed to each well of a 384-well plate (Greiner; 781096) in quadruplicate using a Biomek NXp. 36 μL normalized cells were distributed to each well containing the appropriate 10× ligand/vehicle. Plates were sealed with a breathable cover (Diversified Biotech; BERM-2000) and incubated at 30° C. Fluorescence readings were collected after 18 hours using a plate reader (ClarioStar, BMG LabTech, Offenburg, Germany) (bottom read, 10 flashes/well, excitation filter: 430-10 nm, dichroic filter: LP 458 nm, emission filter: 482-16 nm, gain=1300 (1500 for FIG. 1B.)). Absorbance readings were also collected after 18 hours using the same instrument (22 flashes/well, excitation filter: 600 nm).

ADRA2B = target: T8, ADRA2B (Homo sapiens, UniProt P18089); assay: dCyFIRscreen profiling and titrations in yeast GPCR-Gα reporter strains; assay type: cell-based
T8 construct: expressed in transfected cells; host or cells: Saccharomyces cerevisiae BY4741-derived GPCR-Gα reporter strains, X-2 landing pad
T8 sequence (P18089 1-450): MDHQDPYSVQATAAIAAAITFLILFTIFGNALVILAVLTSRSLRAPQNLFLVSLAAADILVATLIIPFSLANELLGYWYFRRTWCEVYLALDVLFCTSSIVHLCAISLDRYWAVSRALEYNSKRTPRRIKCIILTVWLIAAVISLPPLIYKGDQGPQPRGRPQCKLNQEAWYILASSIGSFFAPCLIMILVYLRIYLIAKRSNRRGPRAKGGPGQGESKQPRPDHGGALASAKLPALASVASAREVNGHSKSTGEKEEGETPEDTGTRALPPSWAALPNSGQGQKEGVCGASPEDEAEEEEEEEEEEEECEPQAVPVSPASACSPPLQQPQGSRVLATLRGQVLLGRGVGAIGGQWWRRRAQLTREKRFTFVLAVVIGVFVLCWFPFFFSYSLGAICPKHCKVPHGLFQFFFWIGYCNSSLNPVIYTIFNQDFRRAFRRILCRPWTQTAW
Procedure: dCyFIRscreen protocol. […] Cells were normalized to an OD of 0.1 in SCD LoFo pH=7.0 using a Biomek NXp liquid-handling robot. […] 36 μL normalized cells were distributed to each well containing the appropriate 10× ligand/vehicle. Plates were sealed with a breathable cover (Diversified Biotech; BERM-2000) and incubated at 30° C. […] Absorbance readings were also collected after 18 hours using the same instrument (22 flashes/well, excitation filter: 600 nm).
Titration Analyses. All titration curves were analyzed using Prism software and the pharmacological fitting function log(agonist) vs. response—Variable slope (four parameters) (GraphPad Software, San Diego, USA).

[2] = test system: 300-plex of GPCR-Gα reporter strains; assay: dCyFIRplex FACS sorting of agonist-treated 300-plex; assay type: cell-based, Saccharomyces cerevisiae; settings: following agonist treatment
Procedure: dCyFIRplex protocol. […] 10× ligand/vehicle stocks were added to individual wells of a DeepWell block. The consolidated 300-plex or control strains were then added to each well and grown in the presence of ligand/vehicle overnight, so that each culture would reach an OD=4.0 before dCyFIRplex profiling. Samples were washed with sterile ddH2O and normalized to an OD=2.0 in SCD LoFo pH=7.0. Tracer cells were added to each sample at a 1:301 ratio. The final mixture was then transferred into a glass sample tube (USA Scientific; 1450-2810) and used for cell sorting. A BD FACSAria-II cell sorter was used for all dCyFIRplex experiments to assess mTq2 (405 nm excitation, 450/50 nm emission) and mRuby3 fluorescence (535 nm excitation, 610/20 nm emission). A gating strategy was set using the three control samples (DI P1 mTq2, individual Gα reporter strains lacking an integrated receptor, and DI P1 mRuby3) such that tracer cells and any cell expressing mTq2 was sorted into a 14 mL collection tube (USA Scientific; 1485-2810) containing 500 μL YPD. Samples treated with water or 500 μM adenosine (well-characterized using dCyFIRscreen, inexpensive, and water-soluble) were used to build a standard curve measuring total events in the mRuby3 and mTq2 positive gates. The standard curve from a water-treated 300-plex was used to determine the number of tracer events that would correspond to 15,000 events in the mTq2 gate for a water-treated 300-plex. Each sample was sorted until the standardized tracer count was reached. Sorted cells were enriched by outgrowth in 5 mL YPD at 30° C. with shaking (200 rpm) for 18 hours. Cells were harvested by centrifugation at 3,000×g for 5 min, and resuspended in 1 mL ddH2O. Cells were either processed immediately for qPCR deconvolution or frozen in 100 μL aliquots for storage at −20° C. The set of samples comparatively deconvoluted by qPCR and NanoString methods were derived from aliquots of the same dCyFIRplex experiments. […]

S1PR2 = target: T9, S1PR2 (Homo sapiens, UniProt O95136); assay: dCyFIRscreen profiling and titrations in yeast GPCR-Gα reporter strains; assay type: cell-based
T9 construct: expressed in transfected cells; host or cells: Saccharomyces cerevisiae BY4741-derived GPCR-Gα reporter strains, X-2 landing pad
T9 sequence (O95136 whole entry): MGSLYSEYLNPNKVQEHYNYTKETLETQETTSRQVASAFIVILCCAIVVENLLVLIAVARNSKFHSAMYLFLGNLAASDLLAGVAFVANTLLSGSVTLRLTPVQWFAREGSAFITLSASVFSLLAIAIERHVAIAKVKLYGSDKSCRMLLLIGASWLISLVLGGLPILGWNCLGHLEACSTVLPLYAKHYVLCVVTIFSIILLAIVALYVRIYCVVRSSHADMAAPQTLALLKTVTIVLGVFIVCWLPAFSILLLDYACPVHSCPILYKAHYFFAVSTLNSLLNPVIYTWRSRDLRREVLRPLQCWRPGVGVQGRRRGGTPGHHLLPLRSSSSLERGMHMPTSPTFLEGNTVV
Procedure: as §1, §2

S1PR1 = target: T10, S1PR1 (Homo sapiens, UniProt P21453); assay: as above; assay type: cell-based
T10 construct: expressed in transfected cells; host or cells: Saccharomyces cerevisiae BY4741-derived GPCR-Gα reporter strains, X-2 landing pad
T10 sequence (P21453 whole entry): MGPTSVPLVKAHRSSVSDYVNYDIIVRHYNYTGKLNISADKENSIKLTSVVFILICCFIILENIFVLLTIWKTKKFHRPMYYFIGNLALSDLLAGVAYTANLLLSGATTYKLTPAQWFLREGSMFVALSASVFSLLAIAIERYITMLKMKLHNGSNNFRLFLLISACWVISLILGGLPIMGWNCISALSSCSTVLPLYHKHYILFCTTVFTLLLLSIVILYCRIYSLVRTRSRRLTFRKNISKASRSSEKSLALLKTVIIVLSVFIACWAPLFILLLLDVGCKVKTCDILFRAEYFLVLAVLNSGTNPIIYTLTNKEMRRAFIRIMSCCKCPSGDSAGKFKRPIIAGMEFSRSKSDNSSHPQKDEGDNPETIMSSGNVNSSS
Procedure: as §1, §2

MTNR1A = target: T11, MTNR1A (Homo sapiens, UniProt P48039); assay: as above; assay type: cell-based
T11 construct: expressed in transfected cells; host or cells: Saccharomyces cerevisiae BY4741-derived GPCR-Gα reporter strains, X-2 landing pad
T11 sequence (P48039 whole entry): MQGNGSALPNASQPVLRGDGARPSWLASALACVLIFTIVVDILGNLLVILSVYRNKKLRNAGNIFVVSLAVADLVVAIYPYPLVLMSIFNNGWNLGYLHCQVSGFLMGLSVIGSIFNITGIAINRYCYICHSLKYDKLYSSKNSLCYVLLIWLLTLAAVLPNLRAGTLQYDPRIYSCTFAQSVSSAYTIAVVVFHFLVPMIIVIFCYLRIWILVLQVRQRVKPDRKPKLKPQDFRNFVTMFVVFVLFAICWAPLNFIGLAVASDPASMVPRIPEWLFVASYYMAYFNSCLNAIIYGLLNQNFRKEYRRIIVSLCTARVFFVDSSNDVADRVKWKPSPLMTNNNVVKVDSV
Procedure: as §1, §2

MTNR1B = target: T12, MTNR1B (Homo sapiens, UniProt P49286); assay: dCyFIRscreen profiling in yeast GPCR-Gα reporter strains; assay type: cell-based
T12 construct: expressed in transfected cells; host or cells: Saccharomyces cerevisiae BY4741-derived GPCR-Gα reporter strains, X-2 landing pad
T12 sequence (P49286 1-362): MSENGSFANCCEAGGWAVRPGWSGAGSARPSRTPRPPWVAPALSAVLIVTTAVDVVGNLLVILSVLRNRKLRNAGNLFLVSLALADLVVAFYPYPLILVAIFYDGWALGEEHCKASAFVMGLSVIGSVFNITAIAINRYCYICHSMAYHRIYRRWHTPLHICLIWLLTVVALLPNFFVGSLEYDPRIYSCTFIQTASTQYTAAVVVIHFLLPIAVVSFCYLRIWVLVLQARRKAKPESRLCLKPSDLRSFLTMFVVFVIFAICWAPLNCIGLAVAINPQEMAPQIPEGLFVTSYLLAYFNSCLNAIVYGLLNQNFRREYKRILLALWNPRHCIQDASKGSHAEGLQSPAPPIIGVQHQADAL
Procedure: as §1, §2

HTR4 = target: T13, HTR4 (Homo sapiens, UniProt Q13639); assay: dCyFIRscreen profiling and titrations in yeast GPCR-Gα reporter strains; assay type: cell-based
T13 construct: expressed in transfected cells; host or cells: Saccharomyces cerevisiae BY4741-derived GPCR-Gα reporter strains, X-2 landing pad
T13 sequence (Q13639 whole entry): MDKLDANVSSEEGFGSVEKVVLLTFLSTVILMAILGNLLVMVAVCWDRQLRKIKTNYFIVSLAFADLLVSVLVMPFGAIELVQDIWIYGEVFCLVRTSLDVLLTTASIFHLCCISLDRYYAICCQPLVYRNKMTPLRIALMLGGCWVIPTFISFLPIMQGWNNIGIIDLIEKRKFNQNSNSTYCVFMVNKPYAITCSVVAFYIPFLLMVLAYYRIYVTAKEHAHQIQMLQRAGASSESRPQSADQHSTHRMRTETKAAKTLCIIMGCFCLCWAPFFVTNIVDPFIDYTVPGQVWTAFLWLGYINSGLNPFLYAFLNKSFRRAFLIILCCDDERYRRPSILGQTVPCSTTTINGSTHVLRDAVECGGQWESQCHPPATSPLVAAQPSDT
Procedure: as §3, §2

[3] = titration, yeast GPCR-Gα reporter strain

`CCCCCC(O)CC(=O)O` (stereo not drawn) [3-hydroxyoctanoic acid] was tested, and the “fold higher EC50 at HCAR3 observed by Colosimo et al. versus this study” value (HCAR3; 304 μM versus 24 μM) was 12.6 fold and the EC50 (HCAR3) was 24 µM.
`C[C@]12CC[C@H](O)CC1=CC[C@@H]1[C@@H]2CC[C@]2(C)C(=O)CC[C@@H]12` [DHEA, dehydroepiandrosterone] was tested, and the “activity at GPR35 in words (mode of action, potency range)” value (from here on “activity at GPR35 in words”) (GPR35) was “increase receptor signaling; also recorded: PAM-agonist”, the “activity at LPAR1 in words (mode of action)” value (shortened to “activity at LPAR1 in words”) (LPAR1) was “increase receptor signaling” and the “activity at GPR68 in words (mode of action)” value (GPR68) was “increase receptor signaling and PAMs”. The “activity at ADORA2A in words (mode of action)” value (ADORA2A) was “increase receptor signaling”, the “activity at GPR4 in words (mode of action)” value (GPR4) was “increase receptor signaling and PAMs” and the “activity at HCAR2 in words (mode of action)” value (HCAR2) was “increase receptor signaling”. The “activity at LPAR4 in words (mode of action)” value (LPAR4) was “increase receptor signaling” and the “activity at HCAR3 in words (mode of action, potency range)” value (from here on “activity at HCAR3 in words”) (HCAR3) was “increase receptor signaling and PAM-agonist and PAMs”.
With `C[C@]12CC[C@H](OS(=O)(=O)O)CC1=CC[C@@H]1[C@@H]2CC[C@]2(C)C(=O)CC[C@@H]12` [DHEA-S] the “response in control dCyFIRscreen profiles” value [1] was “Neither of these ligands elicited responses”.
With `O=C(O)c1cc(=O)c2ccccc2[nH]1` [KYNA, kynurenic acid] the “activity at GPR35 in words” value (GPR35) was “activated”, the EC50 (GPR35; [3]) was 795 µM and the “activity at ADRA2B in words (mode of action, potency range)” value (shortened to “activity at ADRA2B in words”) (ADRA2B) was “micromolar interactions; also recorded: negative allosteric modulator”. For the same compound, the “activity at HCAR3 in words” value (HCAR3) was “micromolar interactions; also recorded: orthosteric agonist”, the “fold higher affinity (lower EC50) for HCAR3 compared to GPR35” value (HCAR3; head-to-head titrations of GPR35 and HCAR3) was 18 fold and 18.6 fold and the EC50 (HCAR3) was 41 µM. The “fold lower EC50 at HCAR3 than phenylpropanoic acid” value (HCAR3; versus literature EC50 of phenylpropanoic acid) was 5.1 fold.
`NCCc1ccccc1` [PEA, phenethylamine] was tested, and the “activity at ADRA2B in words” value (ADRA2B) was “micromolar”.
For `C[C@H](N)C(=O)NCC(=O)N[C@H]1CSSC[C@@H](C(=O)O)NC(=O)[C@H](CO)NC(=O)[C@H]([C@@H](C)O)NC(=O)[C@H](Cc2ccccc2)NC(=O)[C@H]([C@@H](C)O)NC(=O)[C@H](CCCCN)NC(=O)[C@H](Cc2c[nH]c3ccccc23)NC(=O)[C@H](Cc2ccccc2)NC(=O)[C@H](Cc2ccccc2)NC(=O)[C@H](CC(N)=O)NC(=O)[C@H](CCCCN)NC1=O` [SRIF-14, Somatostatin-14], the “active cell pool, fraction of cell-sorting events for the 300-plex” value (from here on “active cell pool, fraction”) [2] was 1.5%.
For `C[C@]12CC[C@@H](O)C[C@@H]1CC[C@@H]1[C@@H]2CC[C@]2(C)C(=O)CC[C@@H]12` [androsterone], the “activity at GPR35 in words” value (GPR35) was “increase receptor signaling”, the “activity at LPAR1 in words” value (LPAR1) was “increase receptor signaling” and the “activity at GPR68 in words (mode of action)” value (GPR68) was “increase receptor signaling and PAMs”. For the same compound, the “activity at ADORA2A in words (mode of action)” value (ADORA2A) was “increase receptor signaling”, the “activity at GPR4 in words (mode of action)” value (GPR4) was “increase receptor signaling and PAMs” and the “activity at HCAR2 in words (mode of action)” value (HCAR2) was “increase receptor signaling”. For the same compound, the “activity at LPAR4 in words (mode of action)” value (LPAR4) was “increase receptor signaling” and the “activity at HCAR3 in words” value (HCAR3) was “increase receptor signaling and PAMs”.
For `CC(C)CCC[C@@H](C)[C@H]1CC[C@H]2[C@@H]3CC=C4C[C@@H](O)CC[C@]4(C)[C@H]3CC[C@]12C` [cholesterol], the “response in control dCyFIRscreen profiles” value [1] was “Neither of these ligands elicited responses”.
For `NCCc1ccc(O)c(O)c1` [dopamine], the “activity at ADRA2B in words” value (ADRA2B) was “micromolar agonist”.
In the case of `COc1ccc2[nH]cc(CCNC(C)=O)c2c1` [melatonin], the “active cell pool, fraction” value [2] is reported as 1.0%.
`CCCCCCCCCCC/C=C\CCCCC(=O)O` [petroselinic acid] was tested, and the “activity at S1PR2 in words (mode of action, potency range)” value (S1PR2) was “agonist specific for”, the “activity at S1PR1 in words (mode of action, potency range)” value (S1PR1) was “agonist specific for” and the “activity at LPAR1 in words” value (LPAR1) was “agonist specific for”.
With `NCCc1c[nH]c2ccc(O)cc12` [serotonin] the “activity at MTNR1A in words (mode of action, potency range)” value (MTNR1A) was “micromolar interactions”, the EC50 (MTNR1A; [3]) was 60 µM and the “activity at ADRA2B in words” value (ADRA2B) was “micromolar interactions”. For the same compound, the “activity at MTNR1B in words (mode of action)” value (MTNR1B) was “not find that serotonin agonized”.
With `CCCCCCCCCCCCC/C=C/[C@@H](O)[C@@H](N)COP(=O)(O)O` [sphingosine-1-phosphate] the “active cell pool, fraction” value [2] was 1.8%.
For `NCCc1c[nH]c2ccccc12` [tryptamine], the “activity at MTNR1A in words (mode of action, potency range)” value (MTNR1A) was “did not activate”, the “activity at ADRA2B in words” value (ADRA2B) was “did activate” and the “EC50 at ADRA2B (in words)” value (ADRA2B; titration) was “micromolar range”. For the same compound, the “activity at HTR4 in words (mode of action)” value (HTR4) was “did activate”, the “EC50 at HTR4 (in words)” value (HTR4; titration) was “micromolar range” and the “activity at MTNR1B in words (mode of action)” value (MTNR1B) was “did not activate”.
With lysophosphatidic acid [LPA] the “activity at S1PR2 in words (mode of action, potency range)” value (S1PR2) was “micromolar interactions; also recorded: higher EC50 values compared to LPAR1” and the “activity at S1PR1 in words (mode of action, potency range)” value (S1PR1) was “higher EC50 values compared to LPAR1”.
phenylethanolamine [PEOA] was tested, and the “activity at ADRA2B in words” value (ADRA2B) was “nanomolar”.
